# Laboratory results from PubChem BioAssay AID1918941 (Molecular Pharmacology Branch, DTP, NCI, 2023).
# Values joined by “and” are separate entries in the source; they are usually repeats but may differ in a detail not shown here. Identical values can stand only once.
# Test system: SW 1271 complex spheroids, viability
# Assay: Anticancer human tumor SW 1271 cell line growth inhibition [LSD1];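 also: spheroids exposed to agents for 7 days before luminescence read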;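 as to viability, T/C: 100% = DMSO vehicle control viability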
# Conditions: for viability, T/C: stronger effect = lower value
# How it was run: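 Drug combinations with the LSD1 inhibitor iadademstat tested on tumor cells co-cultured as spheroids with endothelial cells and mesenchymal stem cells. Concentrations descended in half-log increments from clinical Cmax or 10 microM.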
# [1] = curve of first compound, second compound 0.1 µM
# [2] = curve of first compound, second compound 0.316 µM
# [3] = curve of first compound, second compound 1 µM
# [4] = curve of first compound, second compound 3.16 µM
# [5] = curve of first compound, second compound 10 µM
# [6] = second compound 0.1 µM, first compound 0.000949 µM
# [7] = second compound 0.1 µM, first compound 0.003 µM
# [8] = second compound 0.1 µM, first compound 0.00949 µM
# [9] = second compound 0.1 µM, first compound 0.03 µM
# [10] = second compound 0.1 µM, first compound 0.0949 µM
# [11] = second compound 0.1 µM, first compound 0.3 µM
# [12] = second compound 0.316 µM, first compound 0.000949 µM
# [13] = second compound 0.316 µM, first compound 0.003 µM
# [14] = second compound 0.316 µM, first compound 0.00949 µM
# [15] = second compound 0.316 µM, first compound 0.03 µM
# [16] = second compound 0.316 µM, first compound 0.0949 µM
# [17] = second compound 0.316 µM, first compound 0.3 µM
# [18] = second compound 1 µM, first compound 0.000949 µM
# [19] = second compound 1 µM, first compound 0.003 µM
# [20] = second compound 1 µM, first compound 0.00949 µM
# [21] = second compound 1 µM, first compound 0.03 µM
# [22] = second compound 1 µM, first compound 0.0949 µM
# [23] = second compound 1 µM, first compound 0.3 µM
# [24] = second compound 3.16 µM, first compound 0.000949 µM
# [25] = second compound 3.16 µM, first compound 0.003 µM
# [26] = second compound 3.16 µM, first compound 0.00949 µM
# [27] = second compound 3.16 µM, first compound 0.03 µM
# [28] = second compound 3.16 µM, first compound 0.0949 µM
# [29] = second compound 3.16 µM, first compound 0.3 µM
# [30] = second compound 10 µM, first compound 0.000949 µM
# [31] = second compound 10 µM, first compound 0.003 µM
# [32] = second compound 10 µM, first compound 0.00949 µM
# [33] = second compound 10 µM, first compound 0.03 µM
# [34] = second compound 10 µM, first compound 0.0949 µM
# [35] = second compound 10 µM, first compound 0.3 µM
compound,measurement,setting,value
Nc1ncn(C2CC(O)C(CO)S2)c(=O)n1 (configuration not stated) + NC1CC1c1ccc(-c2cccc(O)c2)cc1,IC50,[1],> 300 nM
same,IC50,[2],> 300 nM
same,IC50,[3],> 300 nM
same,IC50,[4],> 300 nM
same,IC50,[5],> 300 nM
same,"viability, T/C",[6],90.1%
same,"viability, T/C",[7],91.7%
same,"viability, T/C",[8],82%
same,"viability, T/C",[9],76.2%
same,"viability, T/C",[10],82%
same,"viability, T/C",[11],63%
same,"viability, T/C",[12],79.2%
same,"viability, T/C",[13],83.6%
same,"viability, T/C",[14],86.3%
same,"viability, T/C",[15],67.9%
same,"viability, T/C",[16],53.5%
same,"viability, T/C",[17],57.8%
same,"viability, T/C",[18],85.3%
same,"viability, T/C",[19],73.3%
same,"viability, T/C",[20],75.6%
same,"viability, T/C",[21],65.3%
same,"viability, T/C",[22],64.4%
same,"viability, T/C",[23],67.5%
same,"viability, T/C",[24],70.5%
same,"viability, T/C",[25],79.4%
same,"viability, T/C",[26],79.1%
same,"viability, T/C",[27],62.3%
same,"viability, T/C",[28],60.8%
same,"viability, T/C",[29],58.8%
same,"viability, T/C",[30],66.4%
same,"viability, T/C",[31],65.1%
same,"viability, T/C",[32],60.9%
same,"viability, T/C",[33],66.5%
same,"viability, T/C",[34],62.7%
same,"viability, T/C",[35],58.9%
COc1cc(Nc2ncc3c(n2)-c2ccc(Cl)cc2C(c2c(F)cccc2OC)=NC3)ccc1C(=O)O + NC1CC1c1ccc(-c2cccc(O)c2)cc1,IC50,[1],79.7 nM
same,IC50,[2],69 nM
same,IC50,[3],114 nM
same,IC50,[4],79 nM
same,IC50,[5],64.5 nM
same,"viability, T/C","second compound 0.1 µM, first compound 0.00316 µM",75.8%
same,"viability, T/C","second compound 0.1 µM, first compound 0.01 µM",69.2%
same,"viability, T/C","second compound 0.1 µM, first compound 0.0316 µM",67.3%
same,"viability, T/C","second compound 0.1 µM, first compound 0.1 µM",43.5%
same,"viability, T/C","second compound 0.1 µM, first compound 0.316 µM",29%
same,"viability, T/C","second compound 0.1 µM, first compound 1 µM",13.3%
same,"viability, T/C","second compound 0.316 µM, first compound 0.00316 µM",62.6%
same,"viability, T/C","second compound 0.316 µM, first compound 0.01 µM",69.7%
same,"viability, T/C","second compound 0.316 µM, first compound 0.0316 µM",58.2%
same,"viability, T/C","second compound 0.316 µM, first compound 0.1 µM",43%
same,"viability, T/C","second compound 0.316 µM, first compound 0.316 µM",31.4%
same,"viability, T/C","second compound 0.316 µM, first compound 1 µM",13.1%
same,"viability, T/C","second compound 1 µM, first compound 0.00316 µM",68.4%
same,"viability, T/C","second compound 1 µM, first compound 0.01 µM",67.3%
same,"viability, T/C","second compound 1 µM, first compound 0.0316 µM",73.6%
same,"viability, T/C","second compound 1 µM, first compound 0.1 µM",48.1%
same,"viability, T/C","second compound 1 µM, first compound 0.316 µM",31%
same,"viability, T/C","second compound 1 µM, first compound 1 µM",11.6%
same,"viability, T/C","second compound 3.16 µM, first compound 0.00316 µM",60.1%
same,"viability, T/C","second compound 3.16 µM, first compound 0.01 µM",55.7%
same,"viability, T/C","second compound 3.16 µM, first compound 0.0316 µM",67.7%
same,"viability, T/C","second compound 3.16 µM, first compound 0.1 µM",43.4%
same,"viability, T/C","second compound 3.16 µM, first compound 0.316 µM",28.6%
same,"viability, T/C","second compound 3.16 µM, first compound 1 µM",13.7%
same,"viability, T/C","second compound 10 µM, first compound 0.00316 µM",65.6%
same,"viability, T/C","second compound 10 µM, first compound 0.01 µM",59.1%
same,"viability, T/C","second compound 10 µM, first compound 0.0316 µM",61.2%
same,"viability, T/C","second compound 10 µM, first compound 0.1 µM",43%
same,"viability, T/C","second compound 10 µM, first compound 0.316 µM",29.6%
same,"viability, T/C","second compound 10 µM, first compound 1 µM",17.2%
NC1CCC(NC2CC2c2ccccc2)CC1 (configuration not stated),"viability, T/C",compound 0.316 µM,77.1% and 85.3%
same,IC50,"compound alone, run of 02/15/2022",> 10000 nM
Nc1ncn(C2CC(O)C(CO)S2)c(=O)n1 (configuration not stated) + NC1CCC(NC2CC2c2ccccc2)CC1,IC50,[1],> 300 nM
same,IC50,[2],> 300 nM
same,IC50,[3],> 300 nM
same,IC50,[4],> 300 nM
same,IC50,[5],> 300 nM
same,"viability, T/C",[6],97.4%
same,"viability, T/C",[7],82.8%
same,"viability, T/C",[8],92.1%
same,"viability, T/C",[9],85.2%
same,"viability, T/C",[10],86.9%
same,"viability, T/C",[11],82%
same,"viability, T/C",[12],98.1%
same,"viability, T/C",[13],92%
same,"viability, T/C",[14],105%
same,"viability, T/C",[15],93.6%
same,"viability, T/C",[16],86.7%
same,"viability, T/C",[17],82.1%
same,"viability, T/C",[18],92.8%
same,"viability, T/C",[19],84.5%
same,"viability, T/C",[20],98.6%
same,"viability, T/C",[21],101%
same,"viability, T/C",[22],89.2%
same,"viability, T/C",[23],72.4%
same,"viability, T/C",[24],94.8%
same,"viability, T/C",[25],91.7%
same,"viability, T/C",[26],77.4%
same,"viability, T/C",[27],93.9%
same,"viability, T/C",[28],77.7%
same,"viability, T/C",[29],82.1%
same,"viability, T/C",[30],70.8%
same,"viability, T/C",[31],84.5%
same,"viability, T/C",[32],84.5%
same,"viability, T/C",[33],83.9%
same,"viability, T/C",[34],83.2%
same,"viability, T/C",[35],63.6%
